# Measurements reported in PubChem BioAssay (NCI).
#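 GI50 marks 50% less growth. Definition used: TGI = concentration required for complete inhibition of growth.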
# Columns and labels:
# Experiment in all cases: growth of human tumour cells (NCI), 384-well format
# OVCAR-4 ovarian = system: OVCAR-4 ovarian
# COLO 205 colon = system: COLO 205 colon
# U251 glioblastoma = system: U251 glioblastoma
# IGROV1 ovarian = system: IGROV1 ovarian
# SNB-19 CNS = system: SNB-19 CNS
# BT-549 breast = system: BT-549 breast
# NCI/ADR-RES ovarian = system: NCI/ADR-RES ovarian
# RPMI-8226 leukemia = system: RPMI-8226 leukemia
# CCRF-CEM leukemia = system: CCRF-CEM leukemia
# NCI-H460 NSCLC = system: NCI-H460 NSCLC
# SN12C renal = system: SN12C renal
# SK-OV-3 ovarian = system: SK-OV-3 ovarian
# RXF 393 renal = system: RXF 393 renal
# HOP-62 NSCLC = system: HOP-62 NSCLC
# CAKI-1 renal = system: CAKI-1 renal
# ACHN renal = system: ACHN renal
# OVCAR-8 ovarian = system: OVCAR-8 ovarian
# SW-620 colon = system: SW-620 colon
# UACC-257 melanoma = system: UACC-257 melanoma
# HT29 colon = system: HT29 colon
# MDA-MB-231 breast = system: MDA-MB-231 breast
# NCI-H226 lung = system: NCI-H226 lung
# LOX IMVI melanoma = system: LOX IMVI melanoma
# NCI-H322M lung = system: NCI-H322M lung
# NCI-H522 lung = system: NCI-H522 lung
# MCF7 breast = system: MCF7 breast
# OVCAR-3 ovarian = system: OVCAR-3 ovarian
# 786-0 renal = system: 786-0 renal
# SNB-75 CNS = system: SNB-75 CNS
# UACC-62 melanoma = system: UACC-62 melanoma
# SK-MEL-5 melanoma = system: SK-MEL-5 melanoma
# K-562 leukemia = system: K-562 leukemia
# PC-3 prostate = system: PC-3 prostate
# SR leukemia = system: SR leukemia
# SK-MEL-28 melanoma = system: SK-MEL-28 melanoma
# KM12 colon = system: KM12 colon
# UO-31 renal = system: UO-31 renal
# TK-10 renal = system: TK-10 renal
# HOP-92 NSCLC = system: HOP-92 NSCLC
# HCC-2998 colon = system: HCC-2998 colon
# MOLT-4 leukemia = system: MOLT-4 leukemia
# SF-539 CNS = system: SF-539 CNS
# MDA-MB-468 breast = system: MDA-MB-468 breast
# M14 melanoma = system: M14 melanoma
# DU-145 prostate = system: DU-145 prostate
# MALME-3M melanoma = system: MALME-3M melanoma
# EKVX NSCLC = system: EKVX NSCLC
# A549 NSCLC = system: A549 NSCLC
# HS 578T breast = system: HS 578T breast
# SF-268 CNS = system: SF-268 CNS
# SF-295 CNS = system: SF-295 CNS
# OVCAR-5 ovarian = system: OVCAR-5 ovarian
# HL-60(TB) leukemia = system: HL-60(TB) leukemia
# HCT-15 colon = system: HCT-15 colon
# T-47D breast = system: T-47D breast
# NCI-H23 lung = system: NCI-H23 lung
# A498 renal = system: A498 renal
# MDA-MB-435 melanoma = system: MDA-MB-435 melanoma
structure (smiles),measurement,setting,value
NCC(=O)Nc1ccc(-n2nc(C(F)(F)F)cc2-c2ccc3c(ccc4ccccc43)c2)cc1,GI50,OVCAR-4 ovarian,1620 nM
same,TGI,OVCAR-4 ovarian,2980 nM
same,GI50,COLO 205 colon,535 nM
same,TGI,COLO 205 colon,1800 nM
same,GI50,U251 glioblastoma,1190 nM
same,TGI,U251 glioblastoma,2460 nM
same,GI50,IGROV1 ovarian,1090 nM
same,TGI,IGROV1 ovarian,2300 nM
same,GI50,SNB-19 CNS,1520 nM
same,TGI,SNB-19 CNS,2860 nM
same,GI50,BT-549 breast,1330 nM
same,TGI,BT-549 breast,2620 nM
same,GI50,NCI/ADR-RES ovarian,1070 nM
same,TGI,NCI/ADR-RES ovarian,2250 nM
same,GI50,RPMI-8226 leukemia,213 nM
same,TGI,RPMI-8226 leukemia,686 nM
same,GI50,CCRF-CEM leukemia,218 nM
same,TGI,CCRF-CEM leukemia,1720 nM
same,GI50,NCI-H460 NSCLC,296 nM
same,TGI,NCI-H460 NSCLC,1440 nM
same,GI50,SN12C renal,1420 nM
same,TGI,SN12C renal,2740 nM
same,GI50,SK-OV-3 ovarian,1570 nM
same,TGI,SK-OV-3 ovarian,2920 nM
same,GI50,RXF 393 renal,1270 nM
same,TGI,RXF 393 renal,2530 nM
same,GI50,HOP-62 NSCLC,1130 nM
same,TGI,HOP-62 NSCLC,2360 nM
same,GI50,CAKI-1 renal,1180 nM
same,TGI,CAKI-1 renal,2430 nM
same,GI50,ACHN renal,1180 nM
same,TGI,ACHN renal,2430 nM
same,GI50,OVCAR-8 ovarian,1130 nM
same,TGI,OVCAR-8 ovarian,2360 nM
same,GI50,SW-620 colon,965 nM
same,TGI,SW-620 colon,2160 nM
same,GI50,UACC-257 melanoma,1250 nM
same,TGI,UACC-257 melanoma,2510 nM
same,GI50,HT29 colon,1090 nM
same,TGI,HT29 colon,2290 nM
same,GI50,MDA-MB-231 breast,405 nM
same,TGI,MDA-MB-231 breast,2010 nM
same,GI50,NCI-H226 lung,1600 nM
same,TGI,NCI-H226 lung,2960 nM
same,GI50,LOX IMVI melanoma,396 nM
same,TGI,LOX IMVI melanoma,1470 nM
same,GI50,NCI-H322M lung,1420 nM
same,TGI,NCI-H322M lung,2740 nM
same,GI50,NCI-H522 lung,1070 nM
same,TGI,NCI-H522 lung,2270 nM
same,GI50,MCF7 breast,904 nM
same,TGI,MCF7 breast,2120 nM
same,GI50,OVCAR-3 ovarian,1570 nM
same,TGI,OVCAR-3 ovarian,2920 nM
same,GI50,786-0 renal,1020 nM
same,TGI,786-0 renal,2200 nM
same,GI50,SNB-75 CNS,1080 nM
same,TGI,SNB-75 CNS,2290 nM
same,GI50,UACC-62 melanoma,1230 nM
same,TGI,UACC-62 melanoma,2480 nM
same,GI50,SK-MEL-5 melanoma,1120 nM
same,TGI,SK-MEL-5 melanoma,2330 nM
same,GI50,K-562 leukemia,218 nM
same,TGI,K-562 leukemia,1520 nM
same,GI50,PC-3 prostate,1190 nM
same,TGI,PC-3 prostate,2430 nM
same,GI50,SR leukemia,30.6 nM
same,TGI,SR leukemia,104 nM
same,GI50,SK-MEL-28 melanoma,1120 nM
same,TGI,SK-MEL-28 melanoma,2320 nM
same,GI50,KM12 colon,1140 nM
same,TGI,KM12 colon,2370 nM
same,GI50,UO-31 renal,1390 nM
same,TGI,UO-31 renal,2740 nM
same,GI50,TK-10 renal,1320 nM
same,TGI,TK-10 renal,2610 nM
same,GI50,HOP-92 NSCLC,1120 nM
same,TGI,HOP-92 NSCLC,2330 nM
same,GI50,HCC-2998 colon,1060 nM
same,TGI,HCC-2998 colon,2250 nM
same,GI50,MOLT-4 leukemia,44.1 nM
same,TGI,MOLT-4 leukemia,148 nM
same,GI50,SF-539 CNS,1160 nM
same,TGI,SF-539 CNS,2400 nM
same,GI50,MDA-MB-468 breast,1530 nM
same,TGI,MDA-MB-468 breast,2870 nM
same,GI50,M14 melanoma,1270 nM
same,TGI,M14 melanoma,2540 nM
same,GI50,DU-145 prostate,1310 nM
same,TGI,DU-145 prostate,2610 nM
same,GI50,MALME-3M melanoma,1160 nM
same,TGI,MALME-3M melanoma,2390 nM
same,GI50,EKVX NSCLC,1770 nM
same,TGI,EKVX NSCLC,3170 nM
same,GI50,A549 NSCLC,1040 nM
same,TGI,A549 NSCLC,2230 nM
same,GI50,HS 578T breast,1760 nM
same,TGI,HS 578T breast,3160 nM
same,GI50,SF-268 CNS,1050 nM
same,TGI,SF-268 CNS,2240 nM
same,GI50,SF-295 CNS,766 nM
same,TGI,SF-295 CNS,2040 nM
same,GI50,OVCAR-5 ovarian,1660 nM
same,TGI,OVCAR-5 ovarian,3040 nM
same,GI50,HL-60(TB) leukemia,272 nM
same,TGI,HL-60(TB) leukemia,1170 nM
same,GI50,HCT-15 colon,82.1 nM
same,TGI,HCT-15 colon,1750 nM
same,GI50,T-47D breast,1540 nM
same,TGI,T-47D breast,2880 nM
same,GI50,NCI-H23 lung,1760 nM
same,TGI,NCI-H23 lung,3150 nM
same,GI50,A498 renal,1550 nM
same,TGI,A498 renal,2900 nM
same,GI50,MDA-MB-435 melanoma,1110 nM
same,TGI,MDA-MB-435 melanoma,2330 nM
